Data: article PMC7395068, “The evolution of strategies to minimise the risk of human drug-induced liver injury (DILI) in drug discovery and development” (Archives of Toxicology, 2020)
Counter-ions that a name gives are not always drawn. Like-named read-outs stand apart in the source and are kept apart here. Each block holds one molecule with its values, some of them ahead of it.

What was measured:
[1] = cited from earlier work
hu-MPCC = details: In vitro Assay; ref Khetani 2012; cited from earlier work
human hepatocytes = details: cited from earlier work; for Structural based (HCI): In vitro Assay, ref Xu 2008
RMPCC's [2] = details: In vitro Assay; ref Khetani 2012; cited from earlier work
PHH = details: cited from earlier work
HepG2 [3] = details: cited from earlier work
[4] = test system: THLE-Null and THLE-3A4 cells; details: In vitro Assay; ref Gustafsson 2014; cited from earlier work
[5] = plasma free fraction; cited from earlier work
HepaRG spheroids = test: Combined HCI (HCS) and cellular ATP 3D assay in HepaRG spheroids; details: for AC50 / minimal effective concentration: Homo sapiens; for DILI prediction HepaRG spheroids (HCS-MEC): Microtissue model structural based (HCI), combined HCS and ATP, MEC < 25 × Cmax.tot cut-off
[6] = ref Chen 2011; cited from earlier work
RMPCC's [7] = details: In vitro Assay; ref Khetani 2012; cited from earlier work; remark: listed apart in the source
HepG2 [8] = test system: HepG2; set-up: method as in Albrecht 2019; details: In vitro Assay; ref Albrecht 2019; cited from earlier work
[9] = test system: primary human hepatocytes, NIH3T3 fibroblasts, BSEP, CYP3A4; details: cited from earlier work
[10] = test system: HepG2 cells, primary human hepatocytes; details: In vitro Assay; ref Garside 2014; cited from earlier work
hLiMTs = test: Combined HCI (HCS) and cellular ATP 3D assay in hLiMTs
[11] = read-out: Human plasma Cmax; total plasma Cmax.tot, median of 9 literature references; cited from earlier work
Upcyte human hepatocytes = details: In vitro Assay; ref Tolosa 2019; cited from earlier work
HepG2 cells = details: cited from earlier work
rBsep = details: In vitro Assay; ref Dawson 2012; cited from earlier work
[12] = test system: THLE or HepG2 cells, isolated mitochondria, BSEP; details: cited from earlier work
[13] = Plasma free fraction (fu) and unbound Cmax (Cmax,u); format: in vitro ADME, human; details: unbound plasma Cmax
[14] = test system: isolated mouse liver mitochondria; details: In vitro Assay; ref Porceddu 2012; cited from earlier work
[15] = cited from earlier work; remark: listed apart in the source
[16] = In vitro Assay, ref Albrecht 2019
[17] = In vitro Assay, ref Schadt 2015
[18] = Modeled in vitro assays (cytotoxicity, mitochondrial dysfunction, BSEP), ref Aleo et al. 2019

SMILES: CCN(CC)CCOc1ccc(C(=C(Cl)c2ccccc2)c2ccccc2)cc1 [clomiphene citrate]
In vivo DILI ([1]; ref Khetani 2012): +VE
In vivo DILI ([1]; ref Xu 2008): +VE
HMPCC's (hu-MPCC): -VE
Structural based (HCI) (human hepatocytes): -VE
RMPCC's (RMPCC's [2]): -VE

SMILES: O=C1O[C@H]([C@@H](O)CO)C(O)=C1O [ascorbic acid]
Cytotoxicity PHH 48 hrs (PHH; [16]): -VE
Cytotoxicity HepG2 48 hrs (HepG2 [3]; [16]): -VE

SMILES: CCO [ethanol]
Cytotoxicity PHH 48 hrs (PHH): +VE
Cytotoxicity HepG2 48 hrs (HepG2 [3]): +VE

SMILES: C[S+](C)[O-] [dimethylsulfoxide]
In vivo DILI ([1]; in vivo): -VE
Cytotoxicity PHH 48 hrs (PHH): -VE
Cytotoxicity HepG2 48 hrs (HepG2 [3]): -VE

HepaRG <25x Avg Cmax ATP (HepaRG spheroids; HepaRG, ATP endpoint, cut-off <25x Avg Cmax): +ve
HepaRG <100x Avg Cmaxu ATP (HepaRG spheroids; HepaRG, ATP endpoint, cut-off <100x Avg Cmaxu): +ve (<100x Avg Cmaxu)
HepaRG <25x Avg Cmax HCS (HepaRG spheroids; HepaRG, HCS endpoints, cut-off <25x Avg Cmax): -ve
HepaRG <100x Avg Cmaxu HCS (HepaRG spheroids; HepaRG, HCS endpoints, cut-off <100x Avg Cmaxu): +ve (<100x Avg Cmaxu)
HepaRG <25x Avg Cmax All (HepaRG spheroids; HepaRG, all endpoints (ATP and HCS), cut-off <25x Avg Cmax): +ve
HepaRG Cmax max All (HepaRG spheroids; HepaRG, all endpoints, Cmax max used): +ve
HepaRG Cmax min All (HepaRG spheroids; HepaRG, all endpoints, Cmax min used): -ve
HepaRG <10 uM All (HepaRG spheroids; HepaRG, all endpoints, cut-off <10 uM): -ve
HepaRG <100x Avg Cmaxu All (HepaRG spheroids; HepaRG, all endpoints, cut-off <100x Avg Cmaxu): +ve (<100x Avg Cmaxu)
hLiMTs <25x Avg Cmax ATP (hLiMTs; hLiMTs, ATP endpoint, cut-off <25x Avg Cmax): -ve
hLiMTs <100x Avg Cmaxu ATP (hLiMTs; hLiMTs, ATP endpoint, cut-off <100x Avg Cmaxu): -ve
hLiMTs <25x Avg Cmax HCS (hLiMTs; hLiMTs, HCS endpoints, cut-off <25x Avg Cmax): -ve
hLiMTs <100x Avg Cmaxu HCS (hLiMTs; hLiMTs, HCS endpoints, cut-off <100x Avg Cmaxu): -ve
hLiMTs <25x Avg Cmax All (hLiMTs; hLiMTs, all endpoints (ATP and HCS), cut-off <25x Avg Cmax): -ve
hLiMTs Cmax max All (hLiMTs; hLiMTs, all endpoints, Cmax max used): -ve
hLiMTs Cmax min All (hLiMTs; hLiMTs, all endpoints, Cmax min used): -ve
hLiMTs <10 uM All (hLiMTs; hLiMTs, all endpoints, cut-off <10 uM): -ve
hLiMTs <100x Avg Cmaxu All (hLiMTs; hLiMTs, all endpoints, cut-off <100x Avg Cmaxu): -ve
Human plasma Cmax,u [13]: 74.267 µM
SMILES: NNC(=O)c1ccncc1 [isoniazid, reference compound]
Assigned DILI category ([1]; Chen et al. 2016 or literature alignment, ref Chen et al. 2016): 3
In vivo DILI ([1]; […]): +VE
In vivo DILI ([1]; ref Albrecht 2019): +VE
In vivo DILI ([1]; ref Aleo 2019): +VE
In vivo DILI ([1]; ref Dawson 2012): +VE
In vivo DILI ([1]; ref Garside 2014): +VE
In vivo DILI ([1]; ref Gustafsson 2014): +VE
In vivo DILI ([1]; ref Khetani 2012): +VE
In vivo DILI ([1]; ref Porceddu 2012): +VE
In vivo DILI ([1]; ref Schadt 2015): +VE
In vivo DILI ([1]; ref Tolosa 2012): +VE
In vivo DILI ([1]; ref Tolosa 2019): +VE
In vivo DILI ([1]; ref Xu 2008): +VE
Cytotoxicity PHH 48 hrs (PHH; [16]): +VE
THLE-Null [4]: -VE
HMPCC's (hu-MPCC): +VE
fu [5]: 0.970
AC50 (HepaRG spheroids; HepaRG, read-out: ATP endpoint AC50): 3.52 mM
minimal effective concentration (HepaRG spheroids; HepaRG, read-out: ATP endpoint MEC): 1330 µM
AC50 (HepaRG spheroids; HepaRG, read-out: HCS endpoint AC50): 14 mM
minimal effective concentration (HepaRG spheroids; HepaRG, read-out: HCS endpoint MEC): 5790 µM
DILI prediction HepaRG spheroids (HCS-MEC) (HepaRG spheroids): +VE (MEC < 25 × Cmax.tot cut-off)
DILI prediction HepaRG spheroids (HCS-MEC) (HepaRG spheroids; listed as Isoniazid): positive
DILI Score (FDA) (1-8) [6]: 8
Structural based (HCI) (human hepatocytes): -VE
DILI in vitro assay prediction, Xu (2008) (human hepatocytes; Structural based (HCI), human hepatocytes, ref Xu et al. 2008): -VE
RMPCC's (RMPCC's [7]): -VE
Cytotoxicity HepG2 48 hrs (HepG2 [8]): +VE
DILI in vitro assay prediction, Schadt (2015) ([9]; BSEP & Metabolism based, ref Schadt et al. 2015): +VE
Cellular toxicity (3T3 cells) [9, 17]: -VE
Combined Assay [9, 17]: +VE
GSH adduct HML [9, 17]: -VE
Hepatocyte cellular toxicity [9, 17]: -VE
MitoTox 3T3 [9, 17]: +VE
hBSEP inhibition [9, 17]: -VE
Cluster 1-6 +VE Assay [10]: -VE
DILI prediction hLiMTs (HCS-MEC) (hLiMTs; Microtissue model structural based (HCI), combined HCS and ATP, MEC < 25 × Cmax.tot cut-off): -VE
Cmax [11]: 76.6 µM
Upcytes multi donor assay 14day data (Upcyte human hepatocytes): +VE
Structural based (HCI) (HepG2 cells; In vitro Assay, ref Tolosa 2012): +VE
DILI in vitro assay prediction, Tolosa (2012) (HepG2 cells; Structural based (HCI), HepG2, ref Tolosa et al. 2012): -VE
Inhibition of rBsep cutoff<1& cmax u>.2 (rBsep): -VE
Inhibition of rBsep cutoff<3 (rBsep): -VE
Partition Hybrid HRM Score ([12]; In vitro Assay, ref Aleo 2019): +VE
Ro2 Hybrid HRM Score ([12]; In vitro Assay, ref Aleo 2019): -VE
Partition Hybrid HRM Score ≥4, Aleo (2019) [12, 18]: +VE (Partition Hybrid HRM Score ≥4)
Partition Hybrid HRM Score ≥8, Aleo (2019) [12, 18]: -VE
Rule of Two hybrid HRM Score ≥3, Aleo (2019) [12, 18]: -VE
Rule of Two hybrid HRM Score ≥8, Aleo (2019) [12, 18]: -VE
in vitro data EC2<=1x Cmax [14]: +VE
in vitro data EC20<=2uM [14]: -VE
DILI severity category (Chen 2016) ([15]; human DILI classification, LTKB DILIrank, ref Chen et al. 2016): Most
DILI severity category ([15]; human DILI severity, ref Chen et al.): Most
DILI +VE (5-8), DILI -VE (-4) ([15]; ref Chen 2016): +VE
DILI severity category ([15]; ref Chen 2016): vMost-DILI-Concern

SMILES: COc1ccc2[nH]cc(CCNC(C)=O)c2c1 [melatonin]
Cytotoxicity PHH 48 hrs (PHH; [16]): -VE
Structural based (HCI) (human hepatocytes): -VE
Cytotoxicity HepG2 48 hrs (HepG2 [3]; [16]): -VE
